Experimental data taken from ChEMBL document CHEMBL3232845 (Bioorg Med Chem Lett, 2014).

What was measured:
[1] = target: High affinity nerve growth factor receptor (Homo sapiens) (UniProt P04629); test: Inhibition of human TrkA assessed as enzyme activity at 1 uM relative to control; design: scale not given: the % may be the effect or the level left
[2] = target: Epidermal growth factor receptor (Homo sapiens) (UniProt P00533); test: Inhibition of human EGFR assessed as enzyme activity at 1 uM relative to control; design: scale not given: the % may be the effect or the level left
Epidermal growth factor receptor (Homo sapiens), sequence (P00533 whole entry, canonical isoform): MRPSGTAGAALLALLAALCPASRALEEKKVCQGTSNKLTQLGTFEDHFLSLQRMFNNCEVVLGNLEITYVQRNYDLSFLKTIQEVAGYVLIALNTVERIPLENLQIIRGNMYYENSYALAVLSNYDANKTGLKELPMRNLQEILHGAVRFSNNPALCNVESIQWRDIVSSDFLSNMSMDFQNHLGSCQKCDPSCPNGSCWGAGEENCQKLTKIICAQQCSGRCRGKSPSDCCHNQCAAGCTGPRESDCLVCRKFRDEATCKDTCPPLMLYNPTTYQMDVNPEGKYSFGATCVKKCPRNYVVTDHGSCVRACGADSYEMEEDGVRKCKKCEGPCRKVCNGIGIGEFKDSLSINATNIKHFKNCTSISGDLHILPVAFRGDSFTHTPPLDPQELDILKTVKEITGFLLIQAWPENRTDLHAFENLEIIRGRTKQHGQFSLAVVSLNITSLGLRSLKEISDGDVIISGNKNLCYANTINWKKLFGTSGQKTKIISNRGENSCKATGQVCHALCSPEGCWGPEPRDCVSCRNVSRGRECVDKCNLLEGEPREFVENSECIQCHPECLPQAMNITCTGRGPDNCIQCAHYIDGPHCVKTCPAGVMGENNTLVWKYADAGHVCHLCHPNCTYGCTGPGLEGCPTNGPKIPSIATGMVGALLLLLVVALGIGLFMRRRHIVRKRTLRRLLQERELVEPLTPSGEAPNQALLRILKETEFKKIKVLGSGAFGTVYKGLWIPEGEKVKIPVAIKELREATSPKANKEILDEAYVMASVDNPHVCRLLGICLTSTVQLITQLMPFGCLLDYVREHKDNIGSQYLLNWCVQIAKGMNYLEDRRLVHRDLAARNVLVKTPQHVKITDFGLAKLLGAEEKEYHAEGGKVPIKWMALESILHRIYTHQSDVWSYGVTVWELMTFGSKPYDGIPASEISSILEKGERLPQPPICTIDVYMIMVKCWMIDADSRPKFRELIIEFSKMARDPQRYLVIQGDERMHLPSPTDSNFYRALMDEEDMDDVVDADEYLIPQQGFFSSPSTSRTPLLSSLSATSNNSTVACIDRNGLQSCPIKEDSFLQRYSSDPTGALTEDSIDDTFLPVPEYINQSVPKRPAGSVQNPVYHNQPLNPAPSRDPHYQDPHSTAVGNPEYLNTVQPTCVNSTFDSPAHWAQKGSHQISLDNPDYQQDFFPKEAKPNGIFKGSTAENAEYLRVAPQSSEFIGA

[3] = target: Casein kinase I isoform gamma-2 (Homo sapiens) (UniProt P78368); test: Inhibition of human CK1gamma2 assessed as enzyme activity at 1 uM relative to control; design: scale not given: the % may be the effect or the level left
[4] = target: Tyrosine-protein kinase Fgr (Homo sapiens) (UniProt P09769); test: Inhibition of human Fgr assessed as enzyme activity at 1 uM relative to control; design: scale not given: the % may be the effect or the level left
[5] = target: cAMP-dependent protein kinase catalytic subunit PRKX (Homo sapiens) (UniProt P51817); test: Inhibition of human PrKX assessed as enzyme activity at 1 uM relative to control; design: scale not given: the % may be the effect or the level left
[6] = target: Mitogen-activated protein kinase 3 (Homo sapiens) (UniProt P27361); test: Inhibition of human ERK1 assessed as enzyme activity at 1 uM relative to control; design: scale not given: the % may be the effect or the level left
[7] = Apparent permeability of the compound from apical to basolateral direction in pig LLC-PK1 cells; assay type: ADME, cell-based, Sus scrofa
[8] = target: Serine/threonine-protein kinase 17A (Homo sapiens) (UniProt Q9UEE5); test: Inhibition of human DRAK1 assessed as enzyme activity at 1 uM relative to control; design: scale not given: the % may be the effect or the level left
[9] = target: Serine/threonine-protein kinase Sgk2 (Homo sapiens) (UniProt Q9HBY8); test: Inhibition of human SGK2 assessed as enzyme activity at 1 uM relative to control; design: scale not given: the % may be the effect or the level left
[10] = target: SRSF protein kinase 2 (Homo sapiens) (UniProt P78362); test: Inhibition of human SRPK2 assessed as enzyme activity at 1 uM relative to control; design: scale not given: the % may be the effect or the level left
SRSF protein kinase 2 (Homo sapiens), sequence (P78362 whole entry, looked up): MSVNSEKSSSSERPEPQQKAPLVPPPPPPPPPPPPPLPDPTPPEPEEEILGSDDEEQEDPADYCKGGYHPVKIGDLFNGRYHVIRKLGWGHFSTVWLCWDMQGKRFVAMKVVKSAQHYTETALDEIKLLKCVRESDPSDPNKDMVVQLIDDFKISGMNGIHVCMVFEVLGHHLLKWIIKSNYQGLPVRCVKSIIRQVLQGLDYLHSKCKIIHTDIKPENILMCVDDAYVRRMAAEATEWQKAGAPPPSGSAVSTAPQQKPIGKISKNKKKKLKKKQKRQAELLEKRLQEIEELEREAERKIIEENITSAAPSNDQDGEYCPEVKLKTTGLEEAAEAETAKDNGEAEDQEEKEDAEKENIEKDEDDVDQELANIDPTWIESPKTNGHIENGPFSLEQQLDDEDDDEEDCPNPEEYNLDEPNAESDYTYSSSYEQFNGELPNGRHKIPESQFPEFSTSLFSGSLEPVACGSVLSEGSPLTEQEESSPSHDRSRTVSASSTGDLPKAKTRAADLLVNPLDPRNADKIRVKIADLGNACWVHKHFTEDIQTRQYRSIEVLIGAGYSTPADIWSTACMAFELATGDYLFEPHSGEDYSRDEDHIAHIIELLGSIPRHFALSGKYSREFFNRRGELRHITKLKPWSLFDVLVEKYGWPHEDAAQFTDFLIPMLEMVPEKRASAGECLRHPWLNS

[11] = target: Serine/threonine-protein kinase B-raf (Homo sapiens, UniProt P15056, V600E); test: Inhibition of full-length B-Raf V600E mutant (unknown origin)
[12] = target: Mitogen-activated protein kinase 11 (Homo sapiens) (UniProt Q15759); test: Inhibition of human p38beta assessed as enzyme activity at 1 uM relative to control; design: scale not given: the % may be the effect or the level left
[13] = target: Tyrosine-protein kinase Tec (Homo sapiens) (UniProt P42680); test: Inhibition of human activated TEC assessed as enzyme activity at 1 uM relative to control; design: scale not given: the % may be the effect or the level left
Sus scrofa = organism: Sus scrofa; test: Inhibition of […] pig Abl assessed as enzyme activity at 1 uM relative to control; design: scale not given: the % may be the effect or the level left
[14] = target: T1, Cyclin-dependent kinase 5/CDK5 activator 1 (Homo sapiens) (UniProt Q00535+Q15078); test: Inhibition of human CDK5/p35 assessed as enzyme activity at 1 uM relative to control; assay type: protein-complex assay; design: scale not given: the % may be the effect or the level left
T1 sequence (Q00535 whole entry): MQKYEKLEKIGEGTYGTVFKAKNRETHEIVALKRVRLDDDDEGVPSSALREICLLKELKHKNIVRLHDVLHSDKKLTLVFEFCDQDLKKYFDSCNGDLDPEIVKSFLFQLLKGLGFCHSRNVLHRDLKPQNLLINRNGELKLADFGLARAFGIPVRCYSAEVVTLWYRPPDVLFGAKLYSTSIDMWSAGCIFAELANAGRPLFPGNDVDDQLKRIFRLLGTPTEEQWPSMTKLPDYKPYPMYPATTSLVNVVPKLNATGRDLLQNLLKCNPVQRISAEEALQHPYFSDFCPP
T1 sequence (Q15078 99-307 partner limits assumed): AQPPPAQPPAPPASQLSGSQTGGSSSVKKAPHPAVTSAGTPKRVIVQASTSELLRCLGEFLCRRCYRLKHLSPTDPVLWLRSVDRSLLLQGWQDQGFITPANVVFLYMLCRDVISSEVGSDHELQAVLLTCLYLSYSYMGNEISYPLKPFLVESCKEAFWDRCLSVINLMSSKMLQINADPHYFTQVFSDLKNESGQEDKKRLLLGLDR

[15] = target: SRSF protein kinase 1 (Homo sapiens) (UniProt Q96SB4); test: Inhibition of human SRPK1 assessed as enzyme activity at 1 uM relative to control; design: scale not given: the % may be the effect or the level left
[16] = target: Serine/threonine-protein kinase PAK 4 (Homo sapiens) (UniProt O96013); test: Inhibition of human PAK4 assessed as enzyme activity at 1 uM relative to control; design: scale not given: the % may be the effect or the level left
[17] = target: T1, Cyclin-dependent kinase 5/CDK5 activator 1 (Homo sapiens); test: Inhibition of human CDK5/p25 assessed as enzyme activity at 1 uM relative to control; assay type: protein-complex assay; design: scale not given: the % may be the effect or the level left
[18] = target: Dual specificity mitogen-activated protein kinase kinase 7 (Homo sapiens) (UniProt O14733); test: Inhibition of human MKK7 assessed as enzyme activity at 1 uM relative to control; design: scale not given: the % may be the effect or the level left
[19] = target: Calcium/calmodulin-dependent protein kinase type IV (Homo sapiens) (UniProt Q16566); test: Inhibition of human CAMK4 assessed as enzyme activity at 1 uM relative to control; design: scale not given: the % may be the effect or the level left
[20] = target: Testis-specific serine/threonine-protein kinase 1 (Homo sapiens) (UniProt Q9BXA7); test: Inhibition of human TSSK1 assessed as enzyme activity at 1 uM relative to control; design: scale not given: the % may be the effect or the level left
[21] = target: Tyrosine-protein kinase CSK (Homo sapiens) (UniProt P41240); test: Inhibition of human CSK assessed as enzyme activity at 1 uM relative to control; design: scale not given: the % may be the effect or the level left
[22] = target: Ephrin type-A receptor 2 (Homo sapiens) (UniProt P29317); test: Inhibition of human EphA2 assessed as enzyme activity at 1 uM relative to control; design: scale not given: the % may be the effect or the level left
[23] = target: Serine/threonine-protein kinase PLK3 (Homo sapiens) (UniProt Q9H4B4); test: Inhibition of human Plk3 assessed as enzyme activity at 1 uM relative to control; design: scale not given: the % may be the effect or the level left
Serine/threonine-protein kinase PLK3 (Homo sapiens), sequence (Q9H4B4 whole entry, looked up): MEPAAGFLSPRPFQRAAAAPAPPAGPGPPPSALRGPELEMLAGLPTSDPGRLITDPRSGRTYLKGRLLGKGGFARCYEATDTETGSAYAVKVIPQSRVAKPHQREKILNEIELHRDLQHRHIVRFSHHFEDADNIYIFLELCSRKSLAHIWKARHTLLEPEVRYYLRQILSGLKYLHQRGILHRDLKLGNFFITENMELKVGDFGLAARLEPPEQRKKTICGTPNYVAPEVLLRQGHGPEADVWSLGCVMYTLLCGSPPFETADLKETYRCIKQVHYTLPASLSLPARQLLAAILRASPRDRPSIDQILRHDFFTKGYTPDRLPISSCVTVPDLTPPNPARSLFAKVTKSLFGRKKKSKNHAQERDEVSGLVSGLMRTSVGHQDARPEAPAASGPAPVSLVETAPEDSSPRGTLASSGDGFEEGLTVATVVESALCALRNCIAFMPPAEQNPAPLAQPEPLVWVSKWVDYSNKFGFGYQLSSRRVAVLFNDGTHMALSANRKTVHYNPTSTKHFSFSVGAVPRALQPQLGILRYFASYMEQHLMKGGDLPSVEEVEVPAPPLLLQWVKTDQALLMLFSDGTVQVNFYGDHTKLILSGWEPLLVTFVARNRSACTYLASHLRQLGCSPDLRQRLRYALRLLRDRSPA

[24] = target: Homeodomain-interacting protein kinase 1 (Homo sapiens) (UniProt Q86Z02); test: Inhibition of human HIPK1 assessed as enzyme activity at 1 uM relative to control; design: scale not given: the % may be the effect or the level left
[25] = target: Tyrosine-protein kinase Blk (Homo sapiens) (UniProt P51451); test: Inhibition of human BLK assessed as enzyme activity at 1 uM relative to control; design: scale not given: the % may be the effect or the level left
[26] = target: Focal adhesion kinase 1 (Homo sapiens) (UniProt Q05397); test: Inhibition of human FAK assessed as enzyme activity at 1 uM relative to control; design: scale not given: the % may be the effect or the level left
Focal adhesion kinase 1 (Homo sapiens), sequence (Q05397 2-1052 limits assumed): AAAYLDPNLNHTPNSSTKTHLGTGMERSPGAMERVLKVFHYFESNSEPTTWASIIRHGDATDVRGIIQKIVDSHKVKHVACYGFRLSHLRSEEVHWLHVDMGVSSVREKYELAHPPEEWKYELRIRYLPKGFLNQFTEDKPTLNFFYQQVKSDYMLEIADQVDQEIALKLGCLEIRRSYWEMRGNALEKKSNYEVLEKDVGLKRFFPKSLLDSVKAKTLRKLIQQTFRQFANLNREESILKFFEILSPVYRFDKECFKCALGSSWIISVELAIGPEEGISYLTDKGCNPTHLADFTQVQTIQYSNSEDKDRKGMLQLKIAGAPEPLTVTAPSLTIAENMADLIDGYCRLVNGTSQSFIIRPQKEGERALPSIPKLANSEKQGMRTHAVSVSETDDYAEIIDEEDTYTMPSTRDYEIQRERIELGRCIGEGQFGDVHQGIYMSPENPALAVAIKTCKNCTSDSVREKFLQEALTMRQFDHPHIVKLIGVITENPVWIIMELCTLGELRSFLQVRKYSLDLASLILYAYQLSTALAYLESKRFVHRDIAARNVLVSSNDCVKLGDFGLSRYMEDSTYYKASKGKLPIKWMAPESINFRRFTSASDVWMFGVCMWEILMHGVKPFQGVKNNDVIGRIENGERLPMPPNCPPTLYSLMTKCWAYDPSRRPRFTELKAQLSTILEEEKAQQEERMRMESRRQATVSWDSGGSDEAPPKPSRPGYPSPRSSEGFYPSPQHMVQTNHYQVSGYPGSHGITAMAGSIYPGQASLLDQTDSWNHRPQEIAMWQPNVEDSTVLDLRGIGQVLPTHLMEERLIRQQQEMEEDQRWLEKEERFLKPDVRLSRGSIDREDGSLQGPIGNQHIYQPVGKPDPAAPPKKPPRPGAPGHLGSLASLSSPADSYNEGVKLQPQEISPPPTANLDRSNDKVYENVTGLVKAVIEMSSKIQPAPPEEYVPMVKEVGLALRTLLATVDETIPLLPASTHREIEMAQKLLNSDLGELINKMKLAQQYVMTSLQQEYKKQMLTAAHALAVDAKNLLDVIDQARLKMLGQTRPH

[27] = target: CDK7/Cyclin H/MNAT1 (Homo sapiens) (UniProt P51946+P50613+P51948); test: Inhibition of human CDK7/cyclinH/MAT1 assessed as enzyme activity at 1 uM relative to control; assay type: protein-complex assay; design: scale not given: the % may be the effect or the level left
[28] = target: Dual specificity mitogen-activated protein kinase kinase 1 (Homo sapiens) (UniProt Q02750); test: Inhibition of human MEK1 assessed as enzyme activity at 1 uM relative to control; design: scale not given: the % may be the effect or the level left
Saccharomyces cerevisiae = test: Inhibition of yeast CK1 assessed as enzyme activity at 1 uM relative to control; design: scale not given: the % may be the effect or the level left
[29] = target: Serine/threonine-protein kinase Chk2 (Homo sapiens) (UniProt O96017); test: Inhibition of human CHK2 assessed as enzyme activity at 1 uM relative to control; design: scale not given: the % may be the effect or the level left
[30] = target: Serine/threonine-protein kinase MARK2 (Homo sapiens) (UniProt Q7KZI7); test: Inhibition of human MARK2 assessed as enzyme activity at 1 uM relative to control; design: scale not given: the % may be the effect or the level left
[31] = target: BDNF/NT-3 growth factors receptor (Homo sapiens) (UniProt Q16620); test: Inhibition of human TrkB assessed as enzyme activity at 1 uM relative to control; design: scale not given: the % may be the effect or the level left
[32] = target: Serine/threonine-protein kinase 4 (Homo sapiens) (UniProt Q13043); test: Inhibition of human MST1 assessed as enzyme activity at 1 uM relative to control; design: scale not given: the % may be the effect or the level left
[33] = target: Protein-tyrosine kinase 2-beta (Homo sapiens) (UniProt Q14289); test: Inhibition of human FAK2 assessed as enzyme activity at 1 uM relative to control; design: scale not given: the % may be the effect or the level left
[34] = target: Serine/threonine-protein kinase 33 (Homo sapiens) (UniProt Q9BYT3); test: Inhibition of human STK33 assessed as enzyme activity at 1 uM relative to control; design: scale not given: the % may be the effect or the level left
[35] = target: Maternal embryonic leucine zipper kinase (Homo sapiens) (UniProt Q14680); test: Inhibition of human MELK assessed as enzyme activity at 1 uM relative to control; design: scale not given: the % may be the effect or the level left
[36] = target: Macrophage-stimulating protein receptor (Homo sapiens) (UniProt Q04912); test: Inhibition of human Ron assessed as enzyme activity at 1 uM relative to control; design: scale not given: the % may be the effect or the level left
[37] = target: Mitogen-activated protein kinase kinase kinase 5 (Homo sapiens) (UniProt Q99683); test: Inhibition of human MAP3K5 assessed as enzyme activity at 1 uM relative to control; design: scale not given: the % may be the effect or the level left

High affinity nerve growth factor receptor (Homo sapiens), sequence (P04629 33-796 limits assumed): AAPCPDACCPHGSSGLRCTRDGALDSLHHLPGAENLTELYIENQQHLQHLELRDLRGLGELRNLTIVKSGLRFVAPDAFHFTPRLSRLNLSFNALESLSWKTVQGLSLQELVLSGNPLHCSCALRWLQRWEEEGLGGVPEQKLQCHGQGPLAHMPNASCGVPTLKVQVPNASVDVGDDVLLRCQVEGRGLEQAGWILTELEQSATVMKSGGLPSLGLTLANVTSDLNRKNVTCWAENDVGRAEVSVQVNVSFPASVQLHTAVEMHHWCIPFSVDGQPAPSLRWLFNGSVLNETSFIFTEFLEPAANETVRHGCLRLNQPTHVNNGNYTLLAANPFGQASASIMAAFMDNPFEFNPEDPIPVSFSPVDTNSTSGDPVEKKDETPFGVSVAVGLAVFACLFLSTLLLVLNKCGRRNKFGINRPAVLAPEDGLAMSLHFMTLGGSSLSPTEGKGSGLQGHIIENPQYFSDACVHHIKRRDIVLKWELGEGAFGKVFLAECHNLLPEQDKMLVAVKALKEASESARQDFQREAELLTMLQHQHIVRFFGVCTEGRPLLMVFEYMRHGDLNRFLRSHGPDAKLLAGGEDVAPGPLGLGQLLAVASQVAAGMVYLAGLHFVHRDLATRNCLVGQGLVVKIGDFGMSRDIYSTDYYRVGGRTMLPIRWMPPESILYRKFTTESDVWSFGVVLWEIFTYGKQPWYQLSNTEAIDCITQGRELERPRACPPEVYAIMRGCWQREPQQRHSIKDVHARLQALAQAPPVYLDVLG

Activity [1]: 103%
Activity [2]: 102%
Activity [3]: 99.5%
Activity [4]: 105%
Activity [5]: 109%
Activity [6]: 99%
Papp A→B [7]: > 8 ×10⁻⁶ cm/s
Activity [8]: 120%
Activity [9]: 109%
Activity [10]: 96.5%
IC50 [11]: 0.3 nM
Activity [12]: 110%
Activity [13]: 102%
Activity (Sus scrofa): 93%
Activity [14]: 114%
Activity [15]: 109%
Activity [16]: 92%
Activity [17]: 102%
Activity [18]: 121%
Activity [19]: 98%
Activity [20]: 98%
Activity [21]: 111%
Activity [22]: 99.5%
Activity [23]: 99.5%
Activity [24]: 114%
Activity [25]: 102%
Activity [26]: 102%
Activity [27]: 104%
Activity [28]: 97%
Activity (Saccharomyces cerevisiae): 95.5%
Activity [29]: 100%
Activity [30]: 100%
Activity [31]: 86%
Activity [32]: 108%
Activity [33]: 85.5%
Activity [34]: 91%
Activity [35]: 109%
Activity [36]: 110%
Activity [37]: 96%
SMILES: CCCS(=O)(=O)Nc1cccc(Nc2ccc3ncn(C)c(=O)c3c2)c1C#N
